Columns and labels:
Format in all cases: cell-based, human
[1] = tested on: HP1α clusters in MCF7shctrl and shTau cells; test: HP1α clusters per nucleus, confocal immunofluorescence; details: 100 nM TSA, 24 h
Description: (§1) (A) Representative confocal sections of MCF7shctrl and shTau cells untreated or treated with 100 nM TSA for 24 h. […] (B) Quantification of HP1α clusters per nuclei visualized as described previously and realized on three independent experiments. (C) GADD45a and (D) p21 (CDKN1a) expression in MCF7shctrl and shTau cells untreated or treated with 100 nM TSA for 24 h were analyzed by real-time PCR and normalized to RPLO. Results are expressed, relative to the basal activity set to 1, as the mean±SD of three independent assays. (E) Tau tethering prevents adjacent reporter gene activity induced by TSA. GAL4UAS responsive luciferase reporter Hela stable cell line was transfected with GAL4DBD (GAL4) or GAL4DBD-Tau4R and then, 24 h later, treated with TSA (600 nM) for 24 h. The luciferase activity was determined as described in the Materials and Methods. (F) Ectopic Tau4R expression prevents adjacent reporter gene activity induced by TSA. […] The luciferase activity was determined as described in the Materials and Methods. […]
MCF7shctrl, MCF7shTau or transfected Hela cells with Tau4R and GFP-HP1α were fixed in 4% paraformaldehyde for 30 min at room temperature. […] Slides were then analyzed with a Zeiss LSM710 confocal laser scanning microscope (60× magnification). Images were collected in the Z direction at 0.80 μm intervals and quantifications were realized using the Image J plug-in.

[2] = tested on: GADD45a; test: GADD45a expression by real-time PCR; details: 100 nM TSA, 24 h
Description: as §1
Total RNA was prepared using RNeasyMinikit (Qiagen). Reverse transcription (RT) was performed using random hexamers as recommended by the manufacturer (Applied Biosystems). cDNAs were analyzed by PCR amplification using the TaqMan PCR master mix (Applied Biosystems) and a mix of RPLO primers and probes. […]

[3] = tested on: GAPDH promoter in MCF7shctrl cells; test: ChIP-qPCR of H3 acetylation and Tau occupancy on the GAPDH promoter; details: 100 nM TSA, GAPDH transcription start site
Text: (A) Chromatin immunoprecipitations-qPCR analysis of H3 acetylation and Tau occupancy on the GAPDH promoter in MCF7shctrl cells in the indicated conditions. MCF7shctrl cells were subjected to cross-linking by 1% formaldehyde. Chromatin fragments were then immunoprecipitated using antibodies (Ab) against acetylated H3 (ac-H3) or Tau and analyzed by quantitative PCR for the presence of the GAPDH promoter. (B) Functional organization of the p21 promoter. (C) ChIP-qPCR analysis of H3 acetylation in MCF7shctrl or shTau cells or (D) Tau occupancy in MCF7shctrl cells on the p21 promoter. […] Chromatin fragments were then immunoprecipitated using antibodies (Ab) against acetylated H3 or Tau and analyzed by quantitative PCR for the presence of the GAL4 UAS promoter. Quantification of enrichment is represented as fold-enrichment relative to IgG. […]
To test this hypothesis, we next performed chromatin immunoprecipitations assays. […] Quantitative PCR analysis of input or immunoprecipitated DNA using acetylated H3 and Tau antibodies was carried out to detect different promoter regions. […] No change in the level of acetylated H3, nor Tau binding, were detected after TSA treatment (FIG. 3A). […] In addition, Tau was detected at the level of these regions in MCF7shctrl cells (≈4-fold enrichment) in absence or presence of TSA treatment (FIG. 3D).

**Q.** With `CC(/C=C/C(=O)NO)=C\[C@@H](C)C(=O)c1ccc(N(C)C)cc1` [TSA, 2,4-Heptadienamide, 7-[4-(dimethylamino)phenyl]-N-hydroxy-4,6-dimethyl-7-oxo-, (2E,4E,6R)-] as the compound, how does the “HP1α clusters per nucleus” value ([1]; Tau knocked down MCF7 cells) read?
**A.** The value was 3 clusters.

**Q.** What about the “HP1α clusters per nucleus” value ([1]; sh-control MCF7 cells) of the same compound?
**A.** The value was “five”.

**Q.** And the “GADD45a induction (RT-qPCR)” value ([2]; MCF7shctrl cells, relative to basal)?
**A.** Its value is 3 fold.

**Q.** What about the “GADD45a upregulation by TSA” value ([2]; cells with reduced Tau expression (MCF7shTau) vs MCF7shctrl) of the same compound?
**A.** The value was “exacerbated”.

**Q.** What about the “level of acetylated H3 and Tau binding after TSA treatment” value [3] of the same compound?
**A.** The value was “No change”.

From patent publication US20250134952A1, “METHODS FOR IMPROVING THE EFFICACY OF HDAC INHIBITOR THERAPY AND PREDICTING THE RESPONSE TO TREATMENT WITH HDAC INHIBITOR” (INSTITUT NATIONAL DE LA SANTÉ ET DE LA RECHERCHE MÉDICALE, priority 2021, published 2025)
